Experiment [1] concerns adult mongrel dogs. The experiment can be described thus: Cardiotonic activity, racemate testing in anesthetized dogs. It counts as in vivo. As for the experimental part: The cardiotonic activity of the compounds was determined in accordance with the method of Alousi, A. A., et al., J. Cir. Res., 45, 666 (l979). Basically, adult mongrel dogs were anesthetized with sodium pentobarbital and artifically respired. Arterial pressure was recorded via a femoral artery and the pressure pulse used to trigger a cardiotachometer for heart rate. Left ventricular pressure was measured with a Millar catheter and dP/dt was derived. Cardiac output was determined by measuring ascending aortic blood flow with an electromagnetic flow probe and myocardial contractile force was measured with a Walton Brodie strain gauge sutured to the right ventricle. Lead II EKG was also recorded. A standard dose of dopamine was administered to assess myocardial responsiveness. Test compounds were administered by i.v. infusion or bolus administration and the effects on cardiovascular parameters were determined. Dose-related effects of the test compound on BP, HR, dP/dt max., C.F. and C.O. were compared to pretreatment control values and expressed as a percentage change.

Experiment [2] deals with T1, canine cardiac cyclic nucleotide phosphodiesterase (PDE) fraction III (Canis lupus familiaris, UniProt A0A8I3NYE0).
T1 construct: The fraction III isoenzyme was pooled and dialyzed; from tissue; host or cells: canine heart, soluble supernatant, DEAE cellulose fraction III (800 mM sodium acetate eluate)
T1 sequence (A0A8I3NYE0 1-1135): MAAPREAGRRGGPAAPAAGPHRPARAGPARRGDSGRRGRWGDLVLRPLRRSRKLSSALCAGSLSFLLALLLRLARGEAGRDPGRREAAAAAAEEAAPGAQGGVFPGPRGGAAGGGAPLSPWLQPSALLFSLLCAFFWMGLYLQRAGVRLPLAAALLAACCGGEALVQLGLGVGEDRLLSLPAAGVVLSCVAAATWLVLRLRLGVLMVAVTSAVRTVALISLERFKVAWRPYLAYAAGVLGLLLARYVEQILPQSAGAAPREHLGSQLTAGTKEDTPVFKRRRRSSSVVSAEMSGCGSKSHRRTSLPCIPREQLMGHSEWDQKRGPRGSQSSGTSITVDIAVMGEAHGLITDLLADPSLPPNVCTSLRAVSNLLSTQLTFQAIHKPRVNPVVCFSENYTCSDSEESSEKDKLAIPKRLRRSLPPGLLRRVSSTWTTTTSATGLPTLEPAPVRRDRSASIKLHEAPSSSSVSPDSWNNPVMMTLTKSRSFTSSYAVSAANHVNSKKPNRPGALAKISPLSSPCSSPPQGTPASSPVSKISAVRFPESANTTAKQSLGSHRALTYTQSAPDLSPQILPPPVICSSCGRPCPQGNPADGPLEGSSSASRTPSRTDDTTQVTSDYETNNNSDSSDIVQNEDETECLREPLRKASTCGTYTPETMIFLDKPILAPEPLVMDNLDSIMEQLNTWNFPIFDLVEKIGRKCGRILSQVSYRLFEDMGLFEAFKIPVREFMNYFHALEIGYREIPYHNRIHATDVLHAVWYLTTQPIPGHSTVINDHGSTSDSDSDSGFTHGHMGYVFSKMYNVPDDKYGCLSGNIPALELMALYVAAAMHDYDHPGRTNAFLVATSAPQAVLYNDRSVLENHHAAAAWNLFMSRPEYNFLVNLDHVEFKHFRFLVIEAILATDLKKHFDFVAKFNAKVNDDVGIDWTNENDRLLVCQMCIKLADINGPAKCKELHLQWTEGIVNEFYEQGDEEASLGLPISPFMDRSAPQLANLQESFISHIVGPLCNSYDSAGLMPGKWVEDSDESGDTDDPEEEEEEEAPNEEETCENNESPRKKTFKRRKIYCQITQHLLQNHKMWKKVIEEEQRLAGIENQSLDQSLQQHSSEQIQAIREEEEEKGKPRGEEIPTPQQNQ
The experiment can be described thus: Cyclic AMP phosphodiesterase assay with fraction III isoenzyme, comparative testing. It counts as biochemical.

In experiment [3] the test system is human platelet aggregation. The experiment can be described thus: Platelet aggregation in vitro in platelet rich plasma. The experiment is classed as cell-based. Particulars: Homo sapiens, Platelet, human PRP. As for the experimental part:
The racemate and enantiomeric Bemoradan were tested for their effects in vitro on human platelet aggregation. Platelet rich plasma (PRP) was prepared from human donors who were free of aspirin for the preceding week. Venous blood was collected in sodium citrate vacutainer tubes and PRP was obtained by centrifuging the blood at l000 rpm for 5 min. Compounds were dissolved in methanol and added to 480 µl of PRP in a Chrono-log dual channel aggregometer l min prior to aggregant. Serotonin at 5 µM or ADP at 2 µM were the aggregating agents.

The test system of experiment [4] is adult mongrel dogs. The experiment can be described thus: Comparative racemate and enantiomer hemodynamic testing in pentobarbital anesthetized open-chest dogs. It counts as in vivo. To be noted: dogs. As for the experimental part:
Adult mongrel dogs weighing approximately l0-l4 kg were anesthetized with sodium pentobarbital (35 mg/kg, i.p.) and artificially respired. A femoral artery was cannulated to measure mean arterial pressure (MAP) and a femoral vein was cannulated for administering compounds. A Millar microtip pressure transducer was placed in the left ventricle via the left carotid artery to measure left ventricular end diastolic pressure (EDP). pressure pulses triggered a cardiotachometer for determination of heart rate (HR) while the left ventricular pressure waveform was differentiated using a Gould differentiating amplifier to yield dP/dtmax, an index of contractility. A right thoractomy was performed at the fourth intercostal space and the pericardial sac was opened. An externally calibrated Walton-Brodie strain gauge arch was sutured to the right ventricular free wall and stretched to produce a baseline force of approximately l00g. Subsequent changes in right ventricular contractile force (CF) were measured from this baseline. A Carolina electromagnetic flow probe was placed on the ascending aorta to estimate cardiac output (CO). A flexible fluid-filled catheter was inserted into the tip of the right atrium to measure right atrial pressure (RAP). Needle electrodes were placed in the appropriate limbs to record a lead II electrocardiogram (ECG). The following formulas were used to calculate derived parameters: Stroke volume (SV) = CO/HR x l000 Stroke work (SW) = ([…]) x SV Total peripheral resistance (TPR) = (MAP-EDP)/CO
Following surgery and stabilization of hemodynamic parameters, an i.v. infusion of dopamine (l0-l5 µg/kg/min for 3 min) was administered with a Harvard infusion pump to assess responsiveness to positive inotropic stimulation. Baseline hemodynamic values were obtained immediately prior to drug infusion. Responses were continuously monitored on a recorder (Gould 2800) and data collection was facilitated by the use of a Buxco cardiovascular analyzer and data logger.
In the comparative testing a stock solution of each enantiomer (l mg/ml) was prepared fresh daily and diluted before use. Compounds were dissolved in a small volume of dimethylformamide (DMF) and diluted with saline for a final concentration of l5% DMF. Further dilutions were made with a l5% DMF solution.
In the comparative testing each compound was administered in cumulative doses to separate dogs. Data were obtained at the end of each dose. (±) Bemoradan and (+) Bemordan were infused at cumulative doses of 5, l5, 35 and 75 µg/kg, administered with a Harvard infusion pump for 5 minutes each at rates of 0.56, l.l, 2.2, and […], respectively. (-) Bemoradan was given at doses of 5, l5 and 35 µg/kg following the same protocol. The high dose of the (-) isomer was not administered as a means of conserving compound.
Hemodynamic results were expressed as the percent change from pre-drug baseline values and compared using a Dunnett's test with a criterion for significance of p < 0.05. Contractile force ED₄₀ values (i.e., the dose which increased contractile force by 40%) were calculated from dose-response regression lines.

Experiment [5] has as its target T2, cyclic nucleotide phosphodiesterase (Canis lupus familiaris, UniProt A0A8I3NYE0).
T2 sequence (A0A8I3NYE0 1-1135): T1 sequence (A0A8I3NYE0 1-1135)
The experiment can be described thus: Phosphodiesterase inhibitory activity, racemate testing. It counts as biochemical. To be noted: read-out: IC50 (Micromolar concentration for 50% inhibition of cyclic nucleotide activity); cyclic AMP as substrate, Tris-Cl buffer pH 7.4.

Where two headings read alike, the source gives them in different places.

For the molecule “6-(3,4-Dihydro-3-oxo-l,4[2H]-benzothiazin-7-yl)-2,3,4,5-tetrahydro-5-methylpyridazin-3-one [Example 56]”, the “CF (Percent increase in cardiac force)” value in experiment [1] (I.V. dose 0.027 mpk) came to 32%.
Turning to `CC1CC(=O)NN=C1c1ccc2c(c1)OCC(=O)N2` (racemic) [Example 46, 6-(3,4-Dihydro-3-oxo-l,4(2H)-benzoxazin-7-yl)-2,3,4,5-tetrahydro-5-methylpyridazin-3-one], the IC50 was 710 nM in experiment [2] (Table I summary, canine cardiac PDE fraction III, read-out: PDE III inhibition (IC50)); 710 nM in experiment [2] (canine heart fraction III, 0.1 µM cyclic AMP, read-out: PDE III IC50); 0.65 µM in experiment [3] (ADP at 2 µM, read-out: Antiaggregatory IC50 (µM) vs. ADP); 0.4 µM in experiment [3] (Serotonin at 5 µM, read-out: Antiaggregatory IC50 (µM) vs. 5-HT); 0.65 µM in experiment [3] (Table I summary, ADP at 2 µM as aggregant, read-out: Platelet aggregation (IC50) vs. ADP); 0.4 µM in experiment [3] (Table I summary, serotonin at 5 µM as aggregant, read-out: Platelet aggregation (IC50) vs. 5-HT (serotonin)). In addition, the ED40 in experiment [4] (Canis lupus familiaris, iv, Table I summary, dose increasing contractile force by 40%, i.v., read-out: In vivo inotropic ED40, i.v.) stood at 4.4 µg/kg. The “CF ED40 (µg/kg) with 95% F.L.” value in experiment [4] (dose causing a 40% increase in contractility above baseline, from dose-response regression lines, i.v. infusion) is on record as 4.4 (3.9 - 4.9) µg/kg.
On to `COC(=O)CC(C)C(=O)c1ccc2c(c1)SCC(=O)N2C` (stereo not drawn) [Example 53, Methyl 4-(3,4-dihydro-4-methyl-3-oxo-l,4[2H]-benzothiazin-7-yl)-3-methyl-4-oxobutyrate], for which the IC50 in experiment [5] was 25000 nM. In addition, the “CF (Percent increase in cardiac force)” value in experiment [1] (I.V. dose 0.075 mpk) worked out at 21%.
The corresponding values for `O=C1CCC(c2ccc3c(c2)NC(=O)CS3)=NN1` [Example 54, 6-(3,4-Dihydro-3-oxo-l,4[2H]-benzothiazin-6-yl)-2,3,4,5-tetrahydropyridazin-3-one] are 22000 nM and 11%.
`CN1C(=O)CSc2ccc(C3=NNC(=O)CC3)cc21` [Example 55, 6-(3,4-Dihydro-4-methyl-3-oxo-l,4[2H]-benzothiazin-6-yl)-2,3,4,5-tetrahydropyridazin-3-one]: the IC50 in experiment [5] was < 100 nM. Moreover, in experiment [1] (I.V. dose 0.035 mpk), the “CF (Percent increase in cardiac force)” value turned out to be 160%.

The values above are taken from patent publication EP0509845A1, “(+) and (-) enantiomers of 5-aliphatic-6-(benzoxazinyl- or benzothiazinyl)-2,3,4,5-tetrahydropyridazin-3-ones” (ORTHO PHARMACEUTICAL CORPORATION, priority 1991, dated 1992).
